Some test systems named below: ACHN renal; DU-145 prostate; HOP-92 NSCLC; NCI-H23 lung; OVCAR-4 ovarian; OVCAR-8 ovarian; SK-MEL-5 melanoma; SN12C renal; SW-620 colon; U251 CNS.
Test in all cases: NCI-60 cell line screen, 48 h

Several values for one entry are separate records, joined by “and”; a condition that tells them apart may be missing. Equal entries are not always repeated.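 Method: 48-hour compound exposure of cells in 96-well plates, five concentrations, linear interpolation of endpoints. GI50 = concentration required for 50% inhibition of growth. TGI: total growth inhibition.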

Take `CN[C@@H](Cc1cccc2ccccc12)C(=O)N[C@@H](CC(C)C)B(O)O`: the TGI was above 100 µM with ACHN renal; 0.219 µM and 0.315 µM in the assay on DU-145 prostate; 0.0395 µM in the assay with HOP-92 NSCLC; 0.0387 µM and < 0.0114 µM in the assay with NCI-H23 lung; 0.0844 µM in the assay with OVCAR-8 ovarian; 0.103 µM and 0.0128 µM in the assay on SK-MEL-5 melanoma. In addition, the TGI was 0.0722 µM and 0.0185 µM in the assay on SN12C renal; 0.026 µM with SW-620 colon; 0.119 µM and 0.0438 µM in the assay on U251 CNS. The GI50 in the assay on DU-145 prostate was 0.0515 µM; in the assay with HOP-92 NSCLC it was 0.0178 µM; in the assay with NCI-H23 lung, 0.016 µM; in the assay on OVCAR-4 ovarian, 0.0239 µM; with OVCAR-8 ovarian, 0.0259 µM; in the assay with SK-MEL-5 melanoma it was 0.0249 µM. In addition, the GI50 is 0.0167 µM in the assay with SN12C renal, 0.012 µM with SW-620 colon and 0.0303 µM with U251 CNS.
For the compound `O=C(c1ccccc1)C1OC1C(=O)c1ccccc1` (stereo not drawn), the GI50 in the assay on ACHN renal was 3.67 µM; in the assay on DU-145 prostate it was 1.32 µM; in the assay with HOP-92 NSCLC, 1.96 µM; with NCI-H23 lung, 2.33 µM; with OVCAR-4 ovarian, 3.84 µM; with OVCAR-8 ovarian it was 4.02 µM. For the same compound, the GI50 with SK-MEL-5 melanoma was 3.46 µM; in the assay on SN12C renal, 3.22 µM; in the assay with SW-620 colon, 3.11 µM; in the assay on U251 CNS it was 7.58 µM. In addition, the TGI in the assay on ACHN renal was 15.7 µM; in the assay on DU-145 prostate, 4.28 µM; in the assay on HOP-92 NSCLC it was 6.09 µM; in the assay with NCI-H23 lung, 10.8 µM; with OVCAR-4 ovarian it was 26.3 µM; in the assay on OVCAR-8 ovarian, above 100 µM. The TGI is 14.3 µM with SK-MEL-5 melanoma, 63.4 µM in the assay on SN12C renal, 16.1 µM with SW-620 colon and 37.1 µM with U251 CNS.
As for `FC(F)(F)c1cc(NC(=S)N2c3ccccc3-n3cccc3C2c2cccnc2)cc(C(F)(F)F)c1` (stereo not drawn), the GI50 in the assay with ACHN renal is 7.11 µM; in the assay on DU-145 prostate, 10.6 µM; in the assay on HOP-92 NSCLC, 2.93 µM; with NCI-H23 lung, 7.01 µM; with OVCAR-4 ovarian, 6.24 µM; with OVCAR-8 ovarian it was 4.65 µM. The GI50 in the assay on SK-MEL-5 melanoma was 11.6 µM; with SN12C renal, 12.1 µM; in the assay with SW-620 colon, 4.31 µM; in the assay with U251 CNS, 4.2 µM. Moreover, the TGI with ACHN renal was found to be 62 µM; in the assay on DU-145 prostate it was 24.3 µM; in the assay with HOP-92 NSCLC, 7.87 µM; in the assay with NCI-H23 lung it was 20.6 µM; in the assay on OVCAR-4 ovarian it was 23.8 µM; in the assay on OVCAR-8 ovarian it was 15.3 µM. Also, the TGI worked out at 23.9 µM in the assay with SK-MEL-5 melanoma, 35.9 µM in the assay with SN12C renal, 19.6 µM in the assay with SW-620 colon and 14.8 µM in the assay on U251 CNS.
With `Cc1ccc(-c2nc(/C=N/Nc3cc(C)nc4ccc(Br)cc34)c(C)o2)cc1`, the GI50 is 1.8 µM in the assay with ACHN renal; 1.8 µM in the assay with DU-145 prostate; 1.5 µM in the assay on HOP-92 NSCLC; 2.09 µM in the assay on NCI-H23 lung; 1.89 µM in the assay with OVCAR-4 ovarian; 2.08 µM in the assay on OVCAR-8 ovarian. Further, the GI50 in the assay with SK-MEL-5 melanoma is 3.7 µM; in the assay on SN12C renal, 1.88 µM; in the assay with SW-620 colon it was 1.92 µM; in the assay with U251 CNS, 1.84 µM. Further, the TGI turned out to be 3.21 µM with ACHN renal; 3.36 µM in the assay with DU-145 prostate; 2.98 µM in the assay with HOP-92 NSCLC; 4.75 µM with NCI-H23 lung; 3.49 µM in the assay on OVCAR-4 ovarian; 4.4 µM with OVCAR-8 ovarian. The TGI in the assay with SK-MEL-5 melanoma came out at 13.6 µM; in the assay with SN12C renal, 3.69 µM; in the assay on SW-620 colon it was 3.68 µM; with U251 CNS, 3.45 µM.
As to `O=C1/C(=C/c2ccc(F)cc2)CN(C(=O)C(Cl)Cl)C/C1=C\c1ccc(F)cc1`, the GI50 is 0.24 µM with ACHN renal; 0.671 µM in the assay with DU-145 prostate; 1.31 µM in the assay with HOP-92 NSCLC; 0.259 µM in the assay on NCI-H23 lung; 0.321 µM in the assay with OVCAR-4 ovarian; 0.295 µM in the assay with OVCAR-8 ovarian. For the same compound, the GI50 in the assay on SK-MEL-5 melanoma was 0.366 µM; with SN12C renal, 0.222 µM; with SW-620 colon it was 0.0365 µM; with U251 CNS, 0.106 µM. Besides, the TGI with ACHN renal worked out at 0.603 µM; in the assay on DU-145 prostate it was 1.74 µM; in the assay with HOP-92 NSCLC it was 3.13 µM; in the assay on NCI-H23 lung it was 0.774 µM; in the assay on OVCAR-4 ovarian it was 1.15 µM; with OVCAR-8 ovarian it was 1.64 µM. The TGI worked out at 1.01 µM with SK-MEL-5 melanoma, 0.556 µM in the assay with SN12C renal, 0.119 µM in the assay with SW-620 colon and 0.335 µM with U251 CNS.
As for `O=[N+]([O-])c1ccc(N=Nc2c(Cl)cc(O)cc2Cl)cc1`, the GI50 was 1.01 µM with ACHN renal; 2.45 µM with DU-145 prostate; 0.285 µM in the assay with HOP-92 NSCLC; 1.72 µM in the assay on NCI-H23 lung; 1.39 µM in the assay with OVCAR-4 ovarian; 1.09 µM in the assay with OVCAR-8 ovarian. Also, the GI50 in the assay on SK-MEL-5 melanoma is 1.48 µM; with SN12C renal it was 0.875 µM; in the assay with SW-620 colon it was 1.6 µM; in the assay with U251 CNS, 0.977 µM. In addition, the TGI in the assay on ACHN renal was found to be 11.6 µM; with DU-145 prostate it was 11.9 µM; in the assay on HOP-92 NSCLC, 2.01 µM; in the assay with NCI-H23 lung, 6.71 µM; in the assay with OVCAR-4 ovarian it was 12 µM; with OVCAR-8 ovarian it was 5.63 µM. Also, the TGI in the assay on SK-MEL-5 melanoma stood at 3.55 µM; in the assay with SN12C renal, 10.3 µM; in the assay on SW-620 colon it was 10.3 µM; in the assay on U251 CNS, 11.2 µM.
Turning to `CCN1C(=O)N(CC)C2C1NN=c1s/c(=C\c3ccc(C(F)(F)F)cc3)c(=O)n12` (stereo not drawn), the GI50 in the assay on ACHN renal was 0.808 µM; with DU-145 prostate, 0.41 µM; in the assay on HOP-92 NSCLC, 2.2 µM; with NCI-H23 lung it was 0.585 µM; in the assay with OVCAR-4 ovarian, 0.839 µM; with OVCAR-8 ovarian, 0.467 µM. Further, the GI50 is 0.488 µM with SK-MEL-5 melanoma, 0.678 µM in the assay with SN12C renal, 0.406 µM in the assay on SW-620 colon and 0.443 µM in the assay with U251 CNS. The TGI with ACHN renal was 30.5 µM; in the assay with DU-145 prostate, above 32.1 µM; in the assay with HOP-92 NSCLC it was 35.9 µM; with NCI-H23 lung it was above 64.4 µM; in the assay with OVCAR-4 ovarian, above 74.5 µM; with OVCAR-8 ovarian it was 28.2 µM. Further, the TGI in the assay on SK-MEL-5 melanoma is 2.63 µM; in the assay on SN12C renal, 20 µM; in the assay on SW-620 colon, above 42.2 µM; in the assay with U251 CNS, above 41.6 µM.

The values are drawn from PubChem BioAssay (NCI).
